Patent US11903955B2, “Methods of treating heart failure with reduced ejection fraction” (ASTRAZENECA AB, priority 2019, dated 2024)
Where “and” joins values, the source holds several entries; their conditions need not be identical. Equal values may be shown once. Read-outs that look alike come from different tables or passages of the source. Marks after values point to notes of the source that are not given here.

System: patients with chronic heart failure with reduced ejection fraction (LVEF ≤40%)
Conditions: for Change in KCCQ total symptom score at 8 mo., Win ratio (95% CI): >1 indicates superiority; for KCCQ-TSS increase, points more with dapagliflozin compared to placebo: baseline to 8 months
[1] = dapagliflozin vs placebo, at 8 months
[2] = individuals with diabetes, dapagliflozin vs placebo
[3] = individuals without diabetes, dapagliflozin vs placebo

CCOc1ccc(Cc2cc([C@@H]3O[C@H](CO)[C@@H](O)[C@H](O)[C@H]3O)ccc2Cl)cc1 [Dapagliflozin, dapagliflozin]
Change in KCCQ total symptom score at 8 mo. (No T2DM (N = 1298)): 5.4 ± 17.7 | Change in KCCQ total symptom score at 8 mo. (T2DM (N = 1075)): 7.0 ± 19.7 | KCCQ total symptom score, mean difference dapagliflozin vs placebo (all patients, at 8 months): 2.8 points | patients with deterioration (≥5 point decline) in KCCQ-TSS (all patients, at 8 months): 25% and 25.3% | patients with five or greater point (at least small) improvement in KCCQ-TSS (all patients, at 8 months): 58% and 58.3% | Change in KCCQ total symptom score at 8 mo. (all patients, baseline to month 8, mean ± SD): 6.1 ± 18.6 points | Change in KCCQ total symptom score at 8 mo. (all patients, baseline to month 8, mean ± SD, listed as dapagliflozin): 6.1±18.6 points | mean KCCQ-CSS, points higher than placebo (at 4 months): 1.8 points | mean KCCQ-OSS, points higher than placebo (at 4 months): 1.7 points | mean KCCQ-TSS, points higher than placebo (at 4 months): 1.9 points | mean KCCQ-CSS, points higher than placebo (at 8 months): 2.5 points | mean KCCQ-OSS, points higher than placebo (at 8 months): 2.3 points | number needed to treat (NNT) for at least small (≥5 point) improvement in KCCQ-TSS (at 8 months): 14 (10-23) | number needed to treat (NNT) for large (≥15 point) improvement in KCCQ-TSS (at 8 months): 18 (12-35) | number needed to treat (NNT) for moderate (≥10 point) improvement in KCCQ-TSS (at 8 months): 15 (11-25) | patients with large (≥15 point) improvement in KCCQ-TSS (at 8 months): 54.0% | patients with moderate (≥10 point) improvement in KCCQ-TSS (at 8 months): 54.5% | Change in KCCQ total symptom score at 8 mo., win-ratio (95% CI) (dapagliflozin vs placebo, No T2DM): 1.15 (1.05, 1.26) | Change in KCCQ total symptom score at 8 mo., win-ratio (95% CI) (dapagliflozin vs placebo, T2DM): 1.22 (1.11, 1.35) | Change in KCCQ total symptom score at 8 mo., Win ratio (95% CI) (dapagliflozin vs placebo, all patients): 1.18 (1.11-1.26)† | Change in KCCQ total symptom score at 8 mo., Win ratio (95% CI) (dapagliflozin vs placebo, all patients, listed as dapagliflozin): 1.18 | odds ratio (95% CI) for large (≥15 point) improvement in KCCQ-TSS [1]: 1.14 (1.07-1.22) | odds ratio (95% CI) for moderate (≥10 point) improvement in KCCQ-TSS [1]: 1.15 (1.08-1.22) | odds ratio for deterioration (≥5 point decline) in KCCQ-TSS [1]: 0.84 | odds ratio for ≥5 point improvement in KCCQ-TSS [1]: 1.15 | patients with deterioration in KCCQ-TSS (individuals with diabetes): 24.5% | patients with ≥5-point improvement in KCCQ-TSS (individuals with diabetes): 58.9% | odds ratio for deterioration in KCCQ-TSS [2]: 0.78 (0.71, 0.87) | odds ratio for ≥5-point improvement in KCCQ-TSS [2]: 1.20 (1.09, 1.31) | patients with an increase of at least 5 points in KCCQ-TSS (individuals without diabetes): 57.7% | patients with significant deterioration in KCCQ-TSS (individuals without diabetes): 26.0% | odds ratio for increase of at least 5 points in KCCQ-TSS [3]: 1.12 (95% CI 1.03, 1.22) | odds ratio for significant deterioration in KCCQ-TSS [3]: 0.88 (0.81, 0.97) | KCCQ-TSS increase, points more with dapagliflozin compared to placebo (patients with diabetes): 3.5 (95% CI 1.6-5.4) points | KCCQ-TSS increase, points more with dapagliflozin compared to placebo (patients without diabetes): 2.2 (95% CI 0.7-3.7) points
